Data reported in patent publication EP1019392B1, “TRICYCLIC AMIDES USEFUL FOR INHIBITION OF G-PROTEIN FUNCTION AND FOR TREATMENT OF PROLIFERATIVE DISEASES” (SCHERING CORPORATION, priority 1995, dated 1997).
Counter-ions that a name gives are not always drawn. Like-named read-outs stand apart in the source and are kept apart here.

Legend:
[1] = system: T24-BAG4 human bladder carcinoma cells expressing an activated H-ras gene; test: Cell Mat Assay, T24 tumor cells; assay type: cell-based; details: Homo sapiens, read-out: Tumor (T-24) IC50
[2] = system: DLD-1-BAG human colon carcinoma cells expressing as activated K-ras gene; test: Cell Mat Assay, DLD-1 tumor cells; assay type: cell-based; details: Homo sapiens, DLD-1, Mat assay
[3] = system: SW620-BAG human colon carcinoma cells expressing an activated K-ras gene; test: Cell Mat Assay, SW620 tumor cells; assay type: cell-based; details: Homo sapiens, SW-620, Mat assay
[4] = system: Normal human HEPM fibroblasts; test: Cell Mat Assay, normal cell mat; assay type: cell-based; details: Homo sapiens, Fibroblast, normal monolayer
[5] = system: Ras-CVLS processing in COS monkey kidney cells; test: COS cell assay: inhibition of Ras-CVLS processing (Western blot); assay type: cell-based
Description: • 1. In vitro enzyme assays: Inhibition of farnesyl protein transferase and geranylgeranyl protein transferase. Both farnesyl protein transferase (FPT) and geranylgeranyl protein transferase (GGPT) I were partially purified from rat brain by ammonium sulfate fractionation followed by Q-Sepharose (Pharmacia, Inc.) anion exchange chromatography essentially as described by Yokoyama et al (Yokoyama, K., et al., (1991), A protein geranylgeranyltransferase from bovine brain: Implications for protein prenylation specificity, Proc. Natl. Acad. Sci USA 88: 5302-5306, the disclosure of which is incorporated herein by reference thereto). Human farnesyl protein transferase was also expressed in E. coli, using cDNA clones encoding both the a and b subunits. The methods used were similar to those published (Omer, C. et al., (1993), Characterization of recombinant human farnesyl protein transferase: Cloning, expression, farnesyl diphosphate binding, and functional homology with yeast prenyl-protein transferases, Biochemistry 32:5167-5176). Human farnesyl protein transferase was partially-purified from the soluble protein fraction of E. coli as described above. […] Two forms of val^12-Ha-Ras protein were prepared as substrates for these enzymes, differing in their carboxy terminal sequence. One form terminated in cysteine-valine-leucine-serine (Ras-CVLS) the other in cystein-valine-leucine-leucine (Ras-CVLL). Ras-CVLS is a substrate for the farnesyl protein transferase while Ras-CVLL is a substrate for geranylgeranyl protein transferase I. The cDNAs encoding these proteins were constructed so that the proteins contain an amino-terminal extension of 6 histidine residues. Both proteins were expressed in Escherichia coli and purified using metal chelate affinity chromatography. The radiolabelled isoprenyl pyrophosphate substrates, [^3H]farnesyl pyrophosphate and [^3H]geranylgeranyl pyrophosphate, were purchased from DuPont/New England Nuclear. Several methods for measuring farnesyl protein transferase activity have been described (Reiss et al 1990, Cell 62: 81; Schaber et al 1990, J. Biol. Chem. 265: 14701; Manne et al 1990, PNAS 87: 7541; and Barbacid & Manne 1993, U.S. Patent No. 5,185,248). […] The reaction was allowed to proceed for 30 minutes at room temperature and then stopped with 0.5 ml of 4% sodium dodecyl sulfate (SDS) followed by 0.5 ml of cold 30% TCA. Samples were allowed to sit on ice for 45 minutes and precipitated Ras protein was then collected on GF/C filter paper mats using a Brandel cell harvester. Filter mats were washed once with 6% TCA, 2% SDS and radioactivity was measured in a Wallac 1204 Betaplate BS liquid scintillation counter. Percent inhibition was calculated relative to the DMSO vehicle control. The geranylgeranyl protein transferase I assay was essentially identical to the farnesyl protein transferase assay described above, with two exceptions: [^3H]geranylgeranylpyrophosphate replaced farnesyl pyrophosphate as the isoprenoid donor and Ras-CVLL was the protein acceptor. […] Cell-Based Assay: Transient expression of val^12-Ha-Ras-CVLS and val^12-Ha-Ras-CVLL in COS monkey kidney cells: Effect of farnesyl protein transferase inhibitors on Ras processing and on disordered cell growth induced by transforming Ras. COS monkey kidney cells were transfected by electroporation with the plasmid pSV-SPORT (Gibco/BRL) containing a cDNA insert encoding either Ras-CVLS or Ras-CVLL, leading to transient overexpression of a Ras substrate for either farnesyl protein transferase or geranylgeranyl protein transferase I, respectively (see above). Following electroporation, cells were plated into 6-well tissue culture dishes containing 1.5 ml of Dulbecco's-modified Eagle's media (GIBCO, Inc.) supplemented with 10% fetal calf serum and the appropriate farnesyl protein transferase inhibitors. After 24 hours, media was removed and fresh media containing the appropriate drugs was re-added.

[6] = molecular target: T1, farnesyl protein transferase (FPT) (Rattus norvegicus, UniProt Q02293+Q04631); test: In vitro enzyme assay: inhibition of farnesyl protein transferase (transfer of [3H]farnesyl to Ras-CVLS); assay type: biochemical; details: partially purified rat brain FPT, Ras-CVLS
T1 construct: were partially purified from rat brain by ammonium sulfate fractionation followed by Q-Sepharose; from tissue; host or cells: rat brain
Method: • 1. In vitro enzyme assays: Inhibition of farnesyl protein transferase and geranylgeranyl protein transferase. […] Human farnesyl protein transferase was also expressed in E. coli, using cDNA clones encoding both the a and b subunits. […] Human farnesyl protein transferase was partially-purified from the soluble protein fraction of E. coli as described above. […] Two forms of val^12-Ha-Ras protein were prepared as substrates for these enzymes, differing in their carboxy terminal sequence. One form terminated in cysteine-valine-leucine-serine (Ras-CVLS) the other in cystein-valine-leucine-leucine (Ras-CVLL). Ras-CVLS is a substrate for the farnesyl protein transferase while Ras-CVLL is a substrate for geranylgeranyl protein transferase I. The cDNAs encoding these proteins were constructed so that the proteins contain an amino-terminal extension of 6 histidine residues. Both proteins were expressed in Escherichia coli and purified using metal chelate affinity chromatography. The radiolabelled isoprenyl pyrophosphate substrates, [^3H]farnesyl pyrophosphate and [^3H]geranylgeranyl pyrophosphate, were purchased from DuPont/New England Nuclear. […] The reaction was allowed to proceed for 30 minutes at room temperature and then stopped with 0.5 ml of 4% sodium dodecyl sulfate (SDS) followed by 0.5 ml of cold 30% TCA. Samples were allowed to sit on ice for 45 minutes and precipitated Ras protein was then collected on GF/C filter paper mats using a Brandel cell harvester. […] Percent inhibition was calculated relative to the DMSO vehicle control. The geranylgeranyl protein transferase I assay was essentially identical to the farnesyl protein transferase assay described above, with two exceptions: [^3H]geranylgeranylpyrophosphate replaced farnesyl pyrophosphate as the isoprenoid donor and Ras-CVLL was the protein acceptor. […] Cell-Based Assay: Transient expression of val^12-Ha-Ras-CVLS and val^12-Ha-Ras-CVLL in COS monkey kidney cells: Effect of farnesyl protein transferase inhibitors on Ras processing and on disordered cell growth induced by transforming Ras. COS monkey kidney cells were transfected by electroporation with the plasmid pSV-SPORT (Gibco/BRL) containing a cDNA insert encoding either Ras-CVLS or Ras-CVLL, leading to transient overexpression of a Ras substrate for either farnesyl protein transferase or geranylgeranyl protein transferase I, respectively (see above). Following electroporation, cells were plated into 6-well tissue culture dishes containing 1.5 ml of Dulbecco's-modified Eagle's media (GIBCO, Inc.) supplemented with 10% fetal calf serum and the appropriate farnesyl protein transferase inhibitors. After 24 hours, media was removed and fresh media containing the appropriate drugs was re-added. 48 hours after electroporation cells were examined under the microscope to monitor disordered cell growth induced by transforming Ras. Cells expressing transforming Ras become more rounded and refractile and overgrow the monolayer, reminiscent of the transformed phenotype. Cells were then photographed, washed twice with 1 ml of cold phosphate-buffered saline (PBS) and removed from the dish by scraping with a rubber policeman into 1 ml of a buffer containing 25 mM Tris, pH 8.0; 1 mM ethylenediamine tetraacetic acid; 1 mM phenylmethylsulfonyl fluoride; […] leupeptin; and 0.1 mM pepstatin. Cells were lysed by homogenization and cell debris was removed by centrifugation at 2000 x g for 10 min. Cellular protein was precipitated by addition of ice-cold trichloroacetic acid and redissolved in […] of SDS-electrophoresis sample buffer. […] Proteins resolved on the gels were electroblotted onto nitrocellulose membranes for immunodetection. […] After washing, membranes were incubated for one hour at room temperature with a 1:5000 dilution of secondary antibody, rabbit anti-rat IgG conjugated to horseradish peroxidase, in PBS containing 1% fetal calf serum.

[7] = system: DLD-1 (human colon carcinoma cells, ATCC # CCL 221); test: In Vivo Anti-Tumor Studies, subcutaneous DLD-1 tumors; design: species or system athymic nu/nu female mice; details: Mus musculus, DLD-1, po, QID, 4 weeks, range over the listed compounds; for inhibition in vivo at 10 mg/kg: 10 mg/kg p.o.; for inhibition in vivo at 50 mg/kg: 50 mg/kg p.o.
Description: Tumor cells (5 X 10^5 to 8 X 10^6) of DLD-1 (human colon carcinoma cells, ATCC # CCL 221) are innolculated subcutaneously into the flank of 5-6 week o;d athymic nu/nu female mice.

Row | SMILES | IC50 [1] | IC50 [2] | IC50 [3] | IC50 [4] | IC50 ([5]; Primates, COS) | IC50 ([6]; Table 1, read-out: FPT IC50) | inhibition in vivo at 10 mg/kg [7] | inhibition in vivo at 50 mg/kg [7] | IC50 [5] | IC50 ([6]; FPT IC50, Table 1)
1 | NC(=O)N1CCC(CC(=O)N2CCC(=C3c4ncc(Br)cc4CCc4cc(Cl)cc(Br)c43)CC2)CC1 (racemic) [Example 8] | < 1600 nM | 3.1 µM | 3.1 µM | > 25 µM | < 250 nM |  |  |  |  | 
2 | NC(=O)N1CCC(CC(=O)N2CCN([C@@H]3c4ccc(Cl)cc4CCc4cc(Br)cnc43)CC2)CC1 [Example 17] | 1600 nM | 6.25 µM |  | > 25 µM | 350 nM | 43 nM |  |  |  | 
3 | NC(=O)N1CCC(CC(=O)N2CCC(C3c4ccc(Cl)c(Br)c4CCc4cc(Br)cnc43)CC2)CC1 (single isomer, unassigned) [Example 13B] | < 1600 nM |  | > 3.1 µM |  |  |  |  |  |  | 
4 | O=C(Cc1cc[n+]([O-])cc1)N1CCN(C2c3ncc(Br)cc3CCc3cccc(Cl)c32)CC1 (single isomer, unassigned) [Example 20] |  |  |  |  | ~30 nM |  |  |  |  | 
5 | NC(=O)N1CCC(CC(=O)N2CCC(C3c4ccc(Cl)cc4C=Cc4cc(Br)cnc43)CC2)CC1 (centres unmarked) [Example 1] | < 1600 nM |  |  | > 25 µM |  | < 34 nM | 7 to 50% | 35.4 to 83% |  | 
6 | O=C(Cc1cc[n+]([O-])cc1)N1CCC(C2c3ccc(Cl)c(Br)c3CCc3cc(Br)cnc32)CC1 (centres unmarked) [14A • HCl salt] |  |  |  |  |  | < 3.1 nM |  |  | 15 nM | 
7 | O=C(Cc1cc[n+]([O-])cc1)N1CCN(C2c3ncc(Br)cc3CCc3cc(Cl)cc(Cl)c32)CC1 (single isomer, unassigned) [Example 19] | < 1600 nM | < 1.6 µM | 6.25 µM | > 25 µM |  | < 3.8 nM |  |  |  | 
8 | NC(=O)N1CCC(CC(=O)N2CCN([C@H]3c4ccc(Cl)c(Br)c4CCc4cc(Br)cnc43)CC2)CC1 [Example 6] | < 1600 nM | 4 µM | 6.24 µM |  | 40 nM | 3.1 nM | 7 to 50% | 35.4 to 83% |  | 
9 | O=C(Cc1cc[n+]([O-])cc1)N1CCN(C2c3ccc(Cl)c(Br)c3CCc3cc(Br)cnc32)CC1 (centres unmarked) [5 • HCl salt] |  |  |  |  | 10 nM | 3.8 nM |  |  |  | 
10 | O=C(Cc1cc[n+]([O-])cc1)N1CCC(C2c3ccc(Cl)c(Br)c3CCc3cc(Br)cnc32)CC1 (centres unmarked) [Example 14B] |  |  |  |  |  |  |  |  |  | 5 nM
